For the experiment, the target named is T1, tyrosinase (Mus musculus, UniProt P11344).
T1 construct: the supernatant obtained constitutes the cell lysate used as tyrosinase source in the enzymatic assay; endogenous in cells; host or cells: B16F1 murine melanoma cells (alpha-MSH stimulated), detergent lysate supernatant
T1 sequence (P11344 19-533): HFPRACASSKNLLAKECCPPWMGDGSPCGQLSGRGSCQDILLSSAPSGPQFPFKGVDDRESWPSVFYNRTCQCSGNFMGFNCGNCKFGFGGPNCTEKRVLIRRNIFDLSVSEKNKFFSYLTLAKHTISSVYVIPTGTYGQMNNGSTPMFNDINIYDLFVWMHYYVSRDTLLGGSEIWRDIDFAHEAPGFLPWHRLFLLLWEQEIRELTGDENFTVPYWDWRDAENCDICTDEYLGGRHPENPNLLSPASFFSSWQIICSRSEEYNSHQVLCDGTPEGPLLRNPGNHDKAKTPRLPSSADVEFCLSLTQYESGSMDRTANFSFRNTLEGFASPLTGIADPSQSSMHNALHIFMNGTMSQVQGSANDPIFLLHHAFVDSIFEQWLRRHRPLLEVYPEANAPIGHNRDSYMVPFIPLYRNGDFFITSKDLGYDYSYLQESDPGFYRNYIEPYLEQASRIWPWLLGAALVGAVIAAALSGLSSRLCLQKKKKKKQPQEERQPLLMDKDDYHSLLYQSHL
In words: Tyrosinase activity inhibition assay (B16F1 cell lysate, L-tyrosine substrate, MBTH, 520 nm). In kind it is biochemical. The following applies: lysate of B16F1 cells (murine melanoma line), L-DOPA cofactor, 37° C., reading at 520 nm after 6 hours, read-out: Tyrosine hydroxylase/Dopa oxidase IC50. The procedure:
The activity of the inhibitors is measured starting from a lysate of B16F1 cells (murine melanoma line). In the presence of the L-tyrosine substrate, the tyrosinase present in these cells catalyses the hydroxylation of L-tyrosine to give L-DOPA and then the oxidation of the L-DOPA to give dopaquinone. In the presence of MBTH (3-methyl-2-benzothiazolinone hydrazone), the dopaquinone is trapped so as to form a pink complex which absorbs at 520 nm.
The B16F1 cells are cultured in DMEM medium+10% foetal calf serum+10^−9 M α-MSH for 4 days at 37° C. under 7% CO2. They are treated with trypsin, washed with PBS, counted and pelleted. The pellet is taken up at 10^7 cells/ml in lysis buffer (10 mM sodium phosphate, pH 6.8-1% Igepal) and the suspension is treated with ultrasound for 10 seconds. After centrifugation for 30 minutes at 4000 rpm, the supernatant obtained constitutes the cell lysate used as tyrosinase source in the enzymatic assay.
The assays are carried out in duplicate in 384-well plates in a total volume of 50 μl. Each well contains: […]
The plate is incubated at 37° C. and a spectrophotometric reading is carried out at 520 nm after incubating for 6 hours. To avoid any possible absorption of the products, the system uses corrected absorbance (absorbance at time 6 h—absorbance at time zero). […]

Each structure is given as a SMILES string.

Take `Cc1ccc(-c2c[nH]c(=S)[nH]2)s1` [Compound 3, 4-(5-methylthiophen-2-yl)-1,3-dihydroimidazole-2-thione]: the IC50 came to 300 nM.

Consider `Cc1csc(-c2c[nH]c(=S)[nH]2)c1` [Compound 4, 4-(4-methylthiophen-2-yl)-1,3-dihydro-imidazole-2-thione], for which the IC50 amounted to 100 nM.
